# Tests used:
# Format in all cases: functional
# [1] = test system: Aspergillus fumigatus; experiment: Effect on polymorphonuclear neutrophil killing of Aspergillus fumigatus assessed as survival rate of fungi (reference value: 53% +/- 11%)
# [2] = Induction of oxidative burst of polymorphonuclear neutrophil co-cultured with Aspergillus fumigatus germlings at 10 uM after 60 minutes relative to untreated control
# [3] = Inhibition of Aspergillus fumigatus-mediated dendritic cell maturation assessed as decreased CD80 expression at 10 uM
# [4] = test system: Aspergillus fumigatus; experiment: Effect on polymorphonuclear neutrophil killing of Aspergillus fumigatus assessed as survival rate of fungi at 10 ug/ml (reference value: 53% +/- 11%)
# [5] = Inhibition of Aspergillus fumigatus-mediated dendritic cell maturation assessed as decreased CD86 expression at 10 uM
# [6] = Inhibition of Aspergillus fumigatus-mediated dendritic cell maturation assessed as decreased CD40 expression at 10 uM
# [7] = Inhibition of Aspergillus fumigatus-mediated dendritic cell maturation assessed as decreased CD1a expression at 10 uM
# [8] = Induction of TNF-alpha expression in […] dendritic cell co-cultured with Aspergillus fumigatus germ tube at 10 uM after 7 days by RT-PCR
# [9] = Inhibition of Aspergillus fumigatus-mediated dendritic cell maturation assessed as decreased CD83 expression at 10 uM
# [10] = Induction of oxidative burst of polymorphonuclear neutrophil co-cultured with Aspergillus fumigatus germlings at 10 uM after 120 minutes relative to untreated control
# [11] = Induction of IL-2 expression in […] dendritic cell co-cultured with Aspergillus fumigatus germ tube at 10 uM after 7 days by RT-PCR
Structure (SMILES),Survival [1],fold change (FC) [2],inhibition at 10 µM [3],survival at 10 µg/mL [4],inhibition at 10 µM [5],inhibition at 10 µM [6],inhibition at 10 µM [7],Activity [8],inhibition at 10 µM [9],fold change (FC) [10],Activity [11]
CCCCCCCCCCCCCC(=O)O[C@@H]1[C@@H](C)[C@@]2(O)[C@@H](C=C(CO)C[C@]3(O)C(=O)C(C)=C[C@@H]23)[C@@H]2C(C)(C)[C@]12OC(C)=O [PHORBOL MYRISTATE ACETATE],26%,,,,,,,,,,
COc1c(C)c2c(c(O)c1C/C=C(\C)CCC(=O)O)C(=O)OC2 [MYCOPHENOLIC ACID],,3.8,46.7%,57%,43.8%,39.3%,68.8%,52%,21.1%,2.8,94%
